Where a name gives a salt, the structure may show the parent alone.
Target: T1, rh beta trypsin (Homo sapiens, UniProt P20231)
T1 construct: purchased Promega
Assay: Trypsin (tryptase) inhibition, cleavage of N-p-Gly-Pro-Lys-para-nitroaniline measured at 405 nm
Type: biochemical
Conditions: in vitro tests on the pro-drugs of formula IIA; read-out: IC50
Procedure: The compounds of the invention are notable for their effective trypsin-inhibiting property. The said capacity to inhibit trypsin activity was determined in accordance with the following trial descriptions.
The determinations are carried out in tris-HCl buffer (100 mM), that also contained calcium (5 mM) and heparin ([…]), at a pH of 7.4. As the standard, rh beta trypsin is used, this is commercially obtainable, for example, from Promega. A suitable substrate is N-p-Gly-Pro-Lys-para-nitroaniline in a concentration of 0.6 mM. The substrate is digested with trypsin, whereby p-nitro-aniline is obtained that can be measured at 405 nm. Normally, an incubation period of 5 minutes and an incubation temperature of 37° C. is chosen. For the enzyme activity, 0.91 U/ml are used. The determination is carriedout in an auto-analyser (Cobas Bio) from the firm Hoffmann LaRoche. The potential inhibitor substances are used in the screening procedure in concentrations of 10 μM, and the inhibition of the trypsin is given in percentages. At an inhibition in excess of 70%, the IC50 is determined (the concentration at which 50% of the enzyme activity is inhibited). After a 5-minute pre-incubation of the potential inhibiting substance, the substrate is added for the start of the reaction, whereby the production of p-nitro-aniline is taken, after 5 minutes, after testing the linearity, as a measure of the enzyme activity.

T1 sequence (P20231 31-275): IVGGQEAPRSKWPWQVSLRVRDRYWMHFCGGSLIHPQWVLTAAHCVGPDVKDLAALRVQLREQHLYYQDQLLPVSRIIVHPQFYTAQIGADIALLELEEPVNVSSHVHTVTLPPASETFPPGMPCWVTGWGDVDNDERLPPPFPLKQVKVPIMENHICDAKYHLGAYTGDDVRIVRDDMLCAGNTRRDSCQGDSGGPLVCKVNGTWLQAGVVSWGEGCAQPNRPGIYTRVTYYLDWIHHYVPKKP

SMILES	IC50
Cn1c(CCc2ccc(C(N)=NC(=O)c3ccccc3)cc2)nc2cc(C(=O)N3CCC(NC(=O)c4ccccc4)CC3)ccc21 [IIA17]	360 nM
CCCCCCCCOC(=O)N=C(N)c1ccc(CCc2nc3cc(C(=O)N4CCC(NC(=O)c5ccccc5)CC4)ccc3n2C)cc1 [IIA10]	7910 nM

Same assay, conditions: in vitro; tris-HCl buffer pH 7.4 with calcium and heparin; substrate 0.6 mM; 5 minutes, 37° C.; read-out: Trypsin-inhibiting property

SMILES	IC50
Cn1c(CCc2ccc(C(=N)N)cc2)nc2cc(C(=O)N3CCC(Nc4cccc(Cl)c4Cl)CC3)ccc21 [Example 65]	1 to 20 nM
Cn1c(CCc2ccc(C(=N)N)cc2)nc2cc(C(=O)N3CCC(NC(=O)Nc4ccccc4Cl)CC3)ccc21 [Example 29, 4-[2-(5-{4-[3-(2-Chloro-phenyl)-ureido]-piperidine-1-carbonyl}-1-methyl-1H-benzimidazole-2-yl)-ethyl]-benzamidine]	0.1 to 1 nM
Cn1c(CCc2ccc(C(=N)N)cc2)nc2cc(C(=O)N3CCC(NC(=O)Nc4ccc(F)cc4)CC3)ccc21 [Example 42, 4-[2-(5-{4-[3-(4-Fluoro-phenyl)-ureido]-piperidine-1-carbonyl}-1-methyl-1H-benzimidazole-2-yl)-ethyl]-benzamidine]	1 to 20 nM
COC(=O)c1cccc(NC(=O)N(C)C2CCN(C(=O)c3ccc4c(c3)nc(CCc3ccc(C(=N)N)cc3)n4C)CC2)c1 [Example 61, 2-[2-(4-Amidinophenyl)-ethyl]-1-methyl-benzimidazole-5-yl-carboxylic acid-{4-[3-(3-methoxycarbonyl)-phenyl-1-methyl-ureido]piperidinyl)-amide]	1 to 20 nM
Cn1c(CCc2ccc(C(=N)N)cc2)nc2cc(C(=O)N3CCC(NC(=O)Nc4ccc(Cl)cc4Cl)CC3)ccc21 [Example 35, 4-[2-(5-{4-[3-(2,4-Dichloro-phenyl)-ureido]-piperidine-1-carbonyl}-1-methyl-1H-benzimidazole-2-yl)-ethyl]-benzamidine]	1 to 20 nM
Cn1c(CCc2ccc(C(=N)N)cc2)nc2cc(C(=O)N3CCC(NC(=O)Nc4ccc5ccccc5c4)CC3)ccc21 [Example 36, 4-(2-{1-Methyl-5-[4-(3-naphthalen-2-yl-ureido)-piperidine-1-carbonyl]-1H-benzimidazole-2-yl}-ethyl)-benzamidine]	1 to 20 nM
Cn1c(CCc2ccc(C(=N)N)cc2)nc2cc(C(=O)N3CCC(NC(=O)Nc4cccc(Cl)c4)CC3)ccc21 [Example 60, 2-[2-(4-Amidinophenyl)-ethyl]-1-methyl-benzimidazole-5-yl-carboxylic acid-{4-[3-(3-chloro)-phenylureido]piperidinyl}-amide]	0.1 to 1 nM
Cn1c(CCc2ccc(C(=N)N)cc2)nc2cc(C(=O)N3CCC(NC(=O)Nc4ccc(Br)cc4)CC3)ccc21 [Example 39, 4-[2-(5-{4-[3-(4-Bromo-phenyl)-ureido]-piperidine-1-carbonyl}-1-methyl-1H-benzimidazole-2-yl)-ethyl] -benzamidine]	1 to 20 nM
Cn1c(CCc2ccc(C(=N)N)cc2)nc2cc(C(=O)N3CCC(NC(=O)Nc4ccc(Cl)cc4)CC3)ccc21 [Example 31, 4-[2-(5-{4-[3-(4-Chloro-phenyl)-ureido]-piperidine-1-carbonyl}-1-methyl-1H-benzimidazole-2-yl)-ethyl]-benzamidine]	1 to 20 nM
COc1ccccc1C(=O)NC1CCN(C(=O)c2ccc3c(c2)nc(CCc2ccc(C(=N)N)cc2)n3C)CC1 [Example 50, 2-[2-(4-Amidinophenyl)-ethyl]-1-methyl-benzimidazole-5-yl-carboxylic acid-[4-(2-methoxy)-benzamidopiperidinyl)-amide]	1 to 20 nM
Cn1c(CCc2ccc(C(=N)N)cc2)nc2cc(C(=O)N3CCC(NC(=O)c4cc(Cl)ccc4Cl)CC3)ccc21 [Example 64]	0.1 to 1 nM
COC(=O)c1cccc(NC(=O)NC2CCN(C(=O)c3ccc4c(c3)nc(CCc3ccc(C(=N)N)cc3)n4C)CC2)c1 [Example 57, 2-[2-(4-Amidinophenyl)-ethyl]-1-methyl-benzimidazole-5-yl-carboxylic acid-{4-[3-(3-methoxycarbonyl)phenylureido]piperidinyl}-amide]	1 to 20 nM
Cn1c(CCc2ccc(C(=N)N)cc2)nc2cc(C(=O)N3CCC(NC(=O)Nc4ccccc4Br)CC3)ccc21 [Example 37, 4-[2-(5-{4-[3-(2-Bromo-phenyl)-ureido]-piperidine-1-carbonyl}-1-methyl-1H-benzimidazole-2-yl)-ethyl]-benzamidine]	0.1 to 1 nM
Cn1c(CCc2ccc(C(=N)N)cc2)nc2cc(C(=O)N3CCC(NC(=O)c4ccccc4O)CC3)ccc21 [Example 46, 2-[2-(4-Amidinophenyl)-ethyl]-1-methyl-benzimidazole-5-yl-carboxylic acid-[4-(2-hydroxy)-benzamidopiperidinyl)-amide]	1 to 20 nM
CCOCCCn1c(CCc2ccc(C(=N)N)cc2)nc2cc(C(=O)N3CCC(NC(=O)Nc4ccccc4)CC3)ccc21 [Example 20, 2-[2-(4-Amidinophenyl)-ethyl]-1-(3-ethoxy-propyl)-benzimidazol-5-yl-carbonsäure-[4-(3-phenyl-ureido)-piperidinyl]-amid-dihydrochlorid]	1 to 20 nM
CN(C(=O)c1ccccc1)C1CCN(C(=O)c2ccc3c(c2)nc(CCc2ccc(C(=N)N)cc2)n3C)CC1 [Example 53, 2-[2-(4-Amidinophenyl)-ethyl]-1-methyl-benzimidazole-5-yl-carbooxylic acid-[4-(N-methyl)benzamidopiperidinyl]-amide]	1 to 20 nM

SMILES	IC50
Cc1cccc(NC(=O)NC2CCN(C(=O)c3ccc4c(c3)nc(CCc3ccc(C(=N)N)cc3)n4C)CC2)c1 [Example 25, 4-(2-{1-Methyl-5-[4-(3-m-tolyl-ureido)-piperidine-1-carbonyl]-1H-benzimidazole-2-yl}-ethyl)-benzamidine]	1 to 20 nM
Cn1c(CCc2ccc(C(=N)N)cc2)nc2cc(C(=O)N3CCC(NC(=O)Nc4ccc(C(F)(F)F)cc4)CC3)ccc21 [Example 41, 4-[2-(1-Methyl-5-{4-[3-(4-trifluoromethyl-phenyl)-ureido]-piperidine-1-carbonyl}-1H-benzimidazole-2-yl)-ethyl]-benzamidine]	1 to 20 nM
CN(C1CCN(C(=O)c2ccc3c(c2)nc(CCc2ccc(C(=N)N)cc2)n3C)CC1)S(=O)(=O)c1cccc(Cl)c1Cl [Example 171]	20 to 50 nM
Cn1c(CCc2ccc(C(=N)N)cc2)nc2cc(C(=O)N3CCC(NC(=O)c4cccc(Br)c4)CC3)ccc21 [Example 45, 2-[2-(4-Amidinophenyl)-ethyl]-1-methyl-benzimidazole-5-yl-carboxylic acid-[4-(3-bromo)-benzamidopiperidinyl)-amide]	0.1 to 1 nM
CN(C1CCN(C(=O)c2ccc3c(c2)nc(CCc2ccc(C(=N)N)cc2)n3C)CC1)S(=O)(=O)/C=C/c1ccccc1 [Example 166]	1 to 20 nM
CN(C(=O)Nc1cccc(Cl)c1Cl)C1CCN(C(=O)c2ccc3c(c2)nc(CCc2ccc(C(=N)N)cc2)n3C)CC1 [Example 55, 2-[2-(4-Amidinophenyl)-ethyl]-1-methyl-benzimidazole-5-yl-carboxylic acid-{4-[3-(2,3-dichloro)-phenyl-1-methyl-ureido]piperidinyl)-amide]	1 to 20 nM
CCCCS(=O)(=O)N(C)C1CCN(C(=O)c2ccc3c(c2)nc(CCc2ccc(C(=N)N)cc2)n3C)CC1 [Example 168]	1 to 20 nM
Cn1c(CCc2ccc(C(=N)N)cc2)nc2cc(C(=O)N3CCC(NC(=O)Nc4cccc5ccccc45)CC3)ccc21 [Example 34, 4-(2-{1-Methyl-5-[4-(3-naphthalen-1-yl-ureido)-piperidine-1-carbonyl]-1H-benzimidazole-2-yl}-ethyl)-benzamidine]	1 to 20 nM
COc1cccc(NC(=O)NC2CCN(C(=O)c3ccc4c(c3)nc(CCc3ccc(C(=N)N)cc3)n4C)CC2)c1 [Example 28, 4-[2-(5-{4-[3-(3-Methoxy-phenyl)-ureido]-piperidine-1-carbonyl}-1-methyl-1H-benzimidazole-2-yl)-ethyl]-benzamidine]	0.1 to 1 nM
Cn1c(CCc2ccc(C(=N)N)cc2)nc2cc(C(=O)N3CCC(NC(=O)Nc4cccc(C(F)(F)F)c4)CC3)ccc21 [Example 32, 4-[2-(1-Methyl-5-{4-[3-(3-trifluoromethyl-phenyl)-ureido]-piperidine-1-carbonyl}-1H-benzimidazole-2-yl)-ethyl]-benzamidine]	1 to 20 nM
Cn1c(CCc2ccc(C(=N)N)cc2)nc2cc(C(=O)N3CCC(NC(=O)c4cccc(Cl)c4Cl)CC3)ccc21 [Example 67]	0.1 to 1 nM
Cn1c(CCc2ccc(C(=N)N)cc2)nc2cc(C(=O)N3CCC(NC(=O)Cc4cccc5ccccc45)CC3)ccc21 [Example 189]	1 to 20 nM
Cn1c(CCc2ccc(C(=N)N)cc2)nc2cc(C(=O)N3CCC(NC(=O)NC4CCCCC4)CC3)ccc21 [Example 40, 4-(2-{5-[4-(3-Cyclohexyl-ureido)-piperidine-1-carbonyl]-1-methyl-1H-benzimidazole-2-yl}-ethyl)-benzamidine]	1 to 20 nM
Cn1c(CCc2ccc(C(=N)N)cc2)nc2cc(C(=O)N3CCC(NS(=O)(=O)/C=C/c4ccccc4)CC3)ccc21 [Example 167]	1 to 20 nM
Cn1c(CCc2ccc(C(=N)N)cc2)nc2cc(C(=O)N3CCC(NC(=O)Nc4cccc(C(=O)O)c4)CC3)ccc21 [Example 62, [2-(4-Amidinophenyl)-ethyl]-1-methyl-benzimidazole-5-yl-carboxylic acid-{4-[3-(3-carboxyphenyl)-ureido]-piperidinyl}-amide]	1 to 20 nM
